# Test results from US5707963A, “Methods of using growth inhibitory peptides” (Health Research, Incorporated, priority 1996, dated 1998).
# Values joined by “and” are separate entries in the source; they are usually repeats but may differ in a detail not shown here. Equal values may be shown once. Read-outs that look alike come from different tables or passages of the source.
# Experiments:
# [1] = tested on: estrogen-stimulated growth of mouse uterus; type: in vivo
# [2] = tested on: human chorionic gonadotropin (HCG)-stimulated growth of mouse ovary; assay: In vivo wet weight bioassay, inhibition of HCG-stimulated growth of the ovary; settings: for Percent Growth Inhibition: immature mouse ovary
# Experimental: An in vivo wet weight bioassay measuring inhibition of human chorionic gonadotropin (HCG)-stimulated growth of the ovary was performed. The procedure of Mizejewski et al. (see previous citations) was used for the wet weight assay. The applicability of the wet weight bioassay for measuring HCG-stimulated growth of the ovary is disclosed by Mizejewski, G. J., "Human Chorionic Gonadotrophin: Comparative Studies of Ovarian Uptake In Mammals", Comp Biochem Physio 52A:29-34 (1975).
# (§1) Briefly, the synthesized powdered peptide was reconstituted in saline (1 mg/ml) to form a stock solution of the GIP. The stock solution was appropriately diluted to provide dosages of 10ng to 100 μg/mouse. 0.1 ml of the appropriately diluted GIP was injected intraperitoneally into 15-18 day old Nya:NYLAR female mice. Control mice were injected with saline. 1 hour after this first injection, an HCG challenge of 2.8 I.U. of HCG in 0.05 ml saline was given to determine the change in ovarian responsiveness to HCG resulting from exposure to the first injection. 23 hours after the second injection, ovaries were dissected, trimmed free of connective tissue and immediately weighed. The ovarian wet weights were normalized to mouse body weight (mg ovarian weight/g of body weight) to compensate for differences in body weight among litters of the same age. Percent inhibition of HCG-stimulated ovarian growth was calculated as described by Mizejewski et al. (1983).
# [3] = tested on: hydrocortisone (HC)-stimulated growth of mouse spleen; assay: In vivo wet weight bioassay, inhibition of HC-stimulated growth of the spleen; settings: for Percent Growth Inhibition: immature mouse spleen
# Experimental: An in vivo wet weight bioassay measuring inhibition of hydrocortisone (HC)-stimulated growth of the spleen was also performed. The procedure of Mizejewski et al. (see previous citations) was used for the wet weight assay. The applicability of the wet weight bioassay for measuring HC-stimulated growth of the spleen is disclosed by el-Fouhil, A. F. and Turkall, R. M., "Effect of alternate-day hydrocortisone therapy on the immunologically immature rat. I: Effect on blood cell count, immunoglobulin concentrations, and body and organ weights", Toxicologic Pathology 21(4):377-382 (1993).
# as §1, with “500 ng” for “10ng”, “1 hour after this first injection, an HCG challenge of 2.8 I.U. of HCG in 0.05 ml saline was given to determine the change in ovarian responsiveness to HCG resulting from exposure to the first injection.” left out, “spleens” for “ovaries”, “spleenic” for “ovarian”, “HC-stimulated spleenic” for “HCG-stimulated ovarian”
# [4] = tested on: estrogen-stimulated growth of mouse uterus; type: in vivo; remark: listed apart in the source
# Experimental: An in vivo wet weight bioassay measuring inhibition of estrogen-stimulated growth of uteri was performed. The procedure of Mizejewski et al. was used for the wet weight assay (see Mizejewski, G. J. et al. (1983); Mizejewski, G. J. et al. (1986); Mizejewski, G. J. and A. S. Warner (1989); Mizejewski, G. J. et al., "Separation of the Estrogen-Activated Growth-Regulatory Forms of Alpha-Fetoprotein in Mouse Amniotic Fluid," Biol of Reprod 42:887-898 (1990); and Allen, S.H.G. et al. (1993)).
# Briefly, the synthesized powdered peptide was reconstituted in saline (1 mg/ml) to form a stock solution of the GIP. The stock solution was appropriately diluted to provide dosages of 25 to 100 ng/mouse. 0.1 ml of the appropriately diluted GIP was injected intraperitoneally into 15-18 day old Nya:NYLAR female mice. Control mice were injected with saline or other peptides, including a peptide encoded by a portion of the amino acid sequence of albumin and a random 34 amino acid peptide. 1 hour after this first injection, an estrogen challenge of 0.5 micrograms of E2 in 0.1 ml saline was given to determine the change in uterine responsiveness to E2 resulting from exposure to the first injection. 23 hours after the second injection, uteri were dissected, trimmed free of connective tissue and immediately weighed. The uterine wet weights were normalized to mouse body weight (mg uterine weight/g of body weight) to compensate for differences in body weight among litters of the same age. Percent inhibition of estrogen-stimulated uterine growth was calculated as described by Mizejewski et al. (1983).
# Two separate bioassays for inhibition of estrogen-stimulated growth were used. The first was an in vivo bioassay measuring an estrogen-induced increase in wet weight of the immature mouse uterus in a 24-hour determination. Dosages of peptide fragments ranged from 10 to 100 ng, and the %inhibition given in Table 6 represents the peak assay point of the dilution series.
# [5] = tested on: mouse mammary tumor 6WI-1; type: in vivo
# Experimental: A second assay was also used to assess the percent of inhibition for the various fragments. […] The procedure of Parsons et al. was used in this assay (see Parsons et al., Cancer investigation 4(2):109-126 (1986)). The mouse mammary tumor 6WI-1 normally kills animals within 12-15 days. In this assay, the tumor cells were injected into the body cavity of live mice. […] The inhibition of tumor growth is indicated by percentage. […] Unless otherwise indicated, the dose of peptide or peptide fragment was injected into the body cavity of the mice on day 1 and every day for 15 days. Percent inhibition was measured on day 15.
substance,measurement,setting,value
Leu Ser Glu Asp Lys Leu Leu Ala Cys Gly Glu Gly Ala Ala Asp Ile ile Ile Gly His Leu Cys Ile Arg His Glu Met Thr Pro Val Ash Pro Gly Val (LSEDKLLACGEGAADIIIGHLCIRHEMTPVNPGV) [GIP],activity in adult cycling mice,"[1]; adult cycling mice, with and without addition of purified human full-length AFP",active
same,Percent Growth Inhibition,"[1]; adult mouse uterus, 25 ng per mouse",66%
same,Percent Growth Inhibition,"[1]; adult mouse uterus, 100 ng per mouse, added human AFP",79%
same,inhibition of estrogen-stimulated growth,"[1]; adult mouse uterus, peptide diluted 2,000-fold or more",80%
same,inhibition of HCG-induced growth (range over Table 5),[2]; 10ng to 100 μg/mouse,22-100%
same,Percent Growth Inhibition,[2]; 100 ng per mouse,70%
same,Percent Growth Inhibition,[2]; 125 ng per mouse,50%
same,Percent Growth Inhibition,[2]; 250 ng per mouse,56%
same,Percent Growth Inhibition,[2]; 500 ng per mouse,67%
same,Percent Growth Inhibition,[2]; 1 μg per mouse,100% and 79%
same,Percent Growth Inhibition,[2]; 10 μg per mouse,94%
same,Percent Growth Inhibition,"[2]; 100 μg per mouse i.p., HCG 2.8 I.U.",22%
same,most effective dose,"[2]; immature ovary, produced 100% growth inhibition",1 μg/mouse
same,inhibition of HC-induced growth (range over Table 4),[3]; 500 ng to 100 μg/mouse,24-100%
same,Percent Growth Inhibition,[3]; 1.0 μg per mouse,100%
same,Percent Growth Inhibition,[3]; 10.0 μg per mouse,76%
same,Percent Growth Inhibition,"[3]; 100 μg per mouse, 1.0 μg of HC instead of 0.5 μg",24% and 34%
same,Percent Growth Inhibition,"[3]; 100 μg per mouse, HC 0.5 micrograms",67%
same,most effective dose,"[3]; immature spleen, produced 100% growth inhibition",1.0 μg/mouse
same,inhibition of estrogen-stimulated growth (range over Table 1),"[4]; 25 to 100 ng/mouse, immature and adult mouse uterus",33-79%
same,Percent Growth Inhibition,"[4]; immature mouse uterus, 25 ng per mouse i.p., E2 challenge 0.5 micrograms",33%
same,Percent Growth Inhibition,"[4]; immature mouse uterus, 25 ng per mouse, added human AFP",42%
same,Percent Growth Inhibition,"[4]; immature mouse uterus, 50 ng per mouse i.p., E2 challenge 0.5 micrograms",38% and 37% and 30-40%
same,Percent Growth Inhibition,"[4]; immature mouse uterus, 100 ng per mouse i.p., E2 challenge 0.5 micrograms",35%
same,inhibition of estrogen-stimulated growth,"[4]; immature mouse uterus, peptide diluted 2,000-fold or more",30-40%
same,dose with demonstrable activity without E2 activation prior to inoculation,[4]; mouse contains the circulating ligand (estrogen),100 ng/mouse
same,Percent Growth Inhibition,"[5]; adult mouse, 100 μg per mouse daily for 15 days, 0.3-1.0×10^6 tumor cells per mouse, day 15",97%
same,Percent Growth Inhibition,"[5]; adult mouse, 100 μg per mouse daily for 15 days, 1.1-4.0×10^6 tumor cells per mouse, day 15",79%
same,Percent Growth Inhibition,"[5]; adult mouse, 1.1-4.0 × 10^6 tumor cells mixed with 100 μg of the peptide, injected only on day 1",85%
same,Percent Growth Inhibition,"[5]; immature mouse, 1000 μg per mouse daily for 15 days, 0.3-1.0×10^6 tumor cells per mouse, day 15",57%
same,Percent Growth Inhibition,"[5]; immature mouse, 1000 μg per mouse daily for 15 days, 1.1-4.0×10^6 tumor cells per mouse, day 15",49%
